# According to patent US11026943B2, “Aminoquinoline derivatives and uses thereof” (UNIVERSITY OF DELHI, priority 2012, dated 2021):
# Experiment: Solubility (solvent listed in compound tables)
# Type: physicochemical
# Conditions: solvent named, Table 3
row,SOLUBILITY,Compound
1,DMSO,COc1ccc(Nc2nc(NCCNc3c4ccc(Cl)cc4nc4ccc(OC)cc34)nc(NC3CCCCC3)n2)cc1 [ATH 200]
2,DMSO,CN1CCN(c2cc(Cl)nc(NCCNc3ccnc4cc(Cl)ccc34)n2)CC1 [SM 703]
3,DMSO,Cc1cc(NCCCCNc2ccnc3cc(Cl)ccc23)nc(N2CCN(C)CC2)n1 [SM 501]
4,DMSO,COc1ccc(Nc2nc(NCCNc3ccnc4cc(Cl)ccc34)nc(N3CCOCC3)n2)cc1 [SM 332]
5,DMSO,OCCNc1nc(NCCNc2ccnc3cc(Cl)ccc23)nc(N2CCCCC2)n1 [SM 365]
6,DMSO,Clc1ccc2c(NCCNc3nc(Cl)cc(N4CCCCC4)n3)ccnc2c1 [SM 699]
7,DMSO,OCCCNc1nc(NCCCCNc2ccnc3cc(Cl)ccc23)nc(N2CCOCC2)n1 [SM 349]
8,DMSO,CCN1CCN(c2nc(Cl)cc(NCCNc3ccnc4cc(Cl)ccc34)n2)CC1 [SM 702]
9,DMSO,OCCCNc1nc(NCCNc2ccnc3cc(Cl)ccc23)nc(N2CCOCC2)n1 [SM 350]
10,DMSO,Clc1ccc2c(NCCNc3nc(Cl)cc(N4CCOCC4)n3)ccnc2c1 [SM 700]
11,DMSO,Clc1ccc2c(N3CCN(c4nccc(Nc5ccccc5)n4)CC3)ccnc2c1 [ATH 232]
12,DMSO,Cc1cc(Cl)nc(NCCNc2ccnc3cc(Cl)ccc23)n1 [SM 488B]
13,DMSO,COc1ccc(Nc2nc(NCCCNc3c4ccc(Cl)cc4nc4ccc(OC)cc34)nc(NC3CCCCC3)n2)cc1 [ATH 201]
14,DMSO,COc1cc(Nc2nc(NCCNc3c4ccc(Cl)cc4nc4ccc(OC)cc34)nc(N3CCCCC3)n2)cc(OC)c1 [ATH 158]
15,DMSO,OCCCCNc1nc(NCCCCNc2ccnc3cc(Cl)ccc23)nc(N2CCCCC2)n1 [SM 375]
16,DMSO,Clc1ccc2c(NCCCNc3ccnc(N4CCOCC4)n3)ccnc2c1 [SM 721]
17,DMSO,OCCNc1nc(NCCNc2ccnc3cc(Cl)ccc23)nc(N2CCOCC2)n1 [SM 352]
18,DMSO,Clc1ccc2c(NCCCNc3nccc(Cl)n3)ccnc2c1 [SM 719B]
19,DMSO,COc1ccc(Nc2nc(NCCNCc3c4ccc(Cl)cc4nc4ccc(OC)cc34)nc(N(C)C)n2)cc1 [ATH 196]
20,DMSO,OCCCNc1nc(NCCNc2ccnc3cc(Cl)ccc23)nc(N2CCCCC2)n1 [SM 370]
21,DMSO,Fc1ccc(Nc2ccnc(N3CCN(c4ccnc5cc(Cl)ccc45)CC3)n2)cc1 [ATH 223]
22,DMSO,Clc1ccc2c(N3CCN(c4ccnc(N5CCCC5)n4)CC3)ccnc2c1 [ATH 252]

row,SOLUBILITY,Compound
1,DMSO,Cc1cc(N2CCN(c3ccnc4cc(Cl)ccc34)CC2)nc(Cl)n1 [ATH 237]
2,DMSO,Cc1cc(N2CCN(c3ccnc4cc(Cl)ccc34)CC2)nc(N2CCCC2)n1 [ATH 256]
3,DMSO,CCc1ccc(Nc2nc(NCCCNc3ccnc4cc(Cl)ccc34)nc(N3CCOCC3)n2)cc1 [SM 340]
4,DMSO,CCN1CCN(c2nccc(NCCCNc3ccnc4cc(Cl)ccc34)n2)CC1 [SM 723]
5,DMSO,Clc1ccc2c(NCCCNc3cc(Cl)nc(N4CCCCC4)n3)ccnc2c1 [SM 711]
6,DMSO,Clc1ccc2c(NCCCNc3nc(Cl)cc(N4CCCCC4)n3)ccnc2c1 [SM 715]
7,DMSO,COc1cc(Nc2cc(C)nc(N3CCN(c4ccnc5cc(Cl)ccc45)CC3)n2)cc(OC)c1 [ATH 244]
8,DMSO,Clc1ccc2c(NCCNc3nc(Nc4ccccc4)nc(N4CCOCC4)n3)ccnc2c1 [SM 336]
9,DMSO,Clc1ccc2c(N3CCN(c4ccnc(NC5CCCCC5)n4)CC3)ccnc2c1 [ATH 236]
10,DMSO,COc1ccc(Nc2nc(NCCNc3c4ccc(Cl)cc4nc4ccc(OC)cc34)nc(N(C)C)n2)cc1 [ATH 165]
11,DMSO,OCCNc1nc(NCCCCNc2ccnc3cc(Cl)ccc23)nc(N2CCOCC2)n1 [SM 345]
12,DMSO,Clc1ccc2c(NCCCNc3ccnc(Cl)n3)ccnc2c1 [SM 719A]
13,DMSO,COc1cc(Nc2ccnc(N3CCN(c4ccnc5cc(Cl)ccc45)CC3)n2)cc(OC)c1 [ATH 214]
14,DMSO,Cc1cc(NCCNc2ccnc3cc(Cl)ccc23)nc(N2CCCCC2)n1 [SM 490]
15,DMSO,Clc1ccc2c(NCCNc3nccc(N4CCOCC4)n3)ccnc2c1 [SM 733]
16,DMSO,OCCNc1nccc(N2CCN(c3ccnc4cc(Cl)ccc34)CC2)n1 [ATH 254]
17,DMSO,CC(CNc1ccnc2cc(Cl)ccc12)Nc1nc(N2CCOCC2)nc(N2CCOCC2)n1 (stereo not drawn) [SM 143]
18,DMSO,Cc1cc(Cl)nc(NCCCCNc2ccnc3cc(Cl)ccc23)n1 [SM 498B]
19,DMSO,Clc1ccc2c(NCCCNc3ccnc(N4CCCCC4)n3)ccnc2c1 [SM 720]
20,DMSO,CCN1CCN(c2nc(Cl)cc(NCCCNc3ccnc4cc(Cl)ccc34)n2)CC1 [SM 714]
21,DMSO,Cc1cc(N2CCN(c3ccnc4cc(Cl)ccc34)CC2)nc(N2CCOCC2)n1 [ATH 239]

row,Compound,SOLUBILITY
1,Cc1cc(NCCNc2ccnc3cc(Cl)ccc23)nc(N2CCN(C)CC2)n1 [SM 491],DMSO

# Same assay, conditions: solvent named, Table 4
row,SOLUBILITY,Compound
1,DMSO,Cc1ccc(Nc2ccnc(NCCCCNc3ccnc4cc(Cl)ccc34)n2)cc1 [DKG807]
2,DMSO,Clc1ccc(Nc2ccnc(NCCCNc3ccnc4cc(Cl)ccc34)n2)cc1 [DKG814]
3,DMSO,COc1ccc(Nc2ccnc(NCCCNc3ccnc4cc(Cl)ccc34)n2)cc1 [DKG826]
4,DMSO,Clc1ccc2c(NCCCCNc3nccc(Nc4ccccc4)n3)ccnc2c1 [DKG823]
5,DMSO,Cc1cc(Nc2ccc(F)cc2)nc(NCCCCNc2ccnc3cc(Cl)ccc23)n1 [DKG855]
6,DMSO,Cc1cc(Nc2ccccc2)nc(NCCNc2ccnc3cc(Cl)ccc23)n1 [DKG833]
7,DMSO,COc1ccc(Nc2cc(C)nc(NCCCCNc3ccnc4cc(Cl)ccc34)n2)cc1 [DKG839]
8,DMSO,Clc1ccc2c(NCCNc3nccc(Nc4ccc(Br)cc4)n3)ccnc2c1 [DKG809]
9,DMSO,Cc1cc(Nc2ccc(Cl)cc2)nc(NCCCNc2ccnc3cc(Cl)ccc23)n1 [DKG846]
10,DMSO,COc1cc(Nc2ccnc(NCCCNc3ccnc4cc(Cl)ccc34)n2)cc(OC)c1 [DKG830]
11,DMSO,Cc1ccc(Nc2cc(C)nc(NCCNc3ccnc4cc(Cl)ccc34)n2)cc1 [DKG857]
12,DMSO,Fc1ccc(Nc2ccnc(NCCCCNc3ccnc4cc(Cl)ccc34)n2)cc1 [DKG819]

# Same assay, conditions: solvents listed for the compound
row,SOLUBILITY,Compound
1,"MeOH, DMSO",Cc1cc(NCCNc2ccnc3cc(Cl)ccc23)nc(NCCCCO)n1 [MT1-189]
2,"MeOH, DMSO",Cc1cc(NCCNc2ccnc3cc(Cl)ccc23)nc(NCCCCCO)n1 [MT1-190]
3,"MeOH, DMSO",Cc1cc(NCCCCNc2ccnc3cc(Cl)ccc23)nc(NCCCCO)n1 [MT1-194]
4,"MeOH, DMSO",OCCCCCNc1nccc(NCCCNc2ccnc3cc(Cl)ccc23)n1 [MT1-128]
5,"MeOH, DMSO",Cc1cc(NCCCCNc2ccnc3cc(Cl)ccc23)nc(NCCCCCCO)n1 [MT1-196]
6,"MeOH, DMSO",Cc1cc(NCCCCNc2ccnc3cc(Cl)ccc23)nc(NCCCCCO)n1 [MT1-195]
7,"MeOH, DMSO",OCCCCNc1nccc(NCCCCNc2ccnc3cc(Cl)ccc23)n1 [MT1-158]
